Reference: patent US8080664B2, “Use of compounds as inhibitors for Helicobacter flavodoxin” (Universidad De Zaragoza, priority 2007, dated 2011)

Columns and labels:
H. pylori flavodoxin = target: T1, H. pylori flavodoxin (Helicobacter pylori, UniProt O25776); assay: Inhibition assay of sequential electron transfer pyruvate/PFOR/flavodoxin/FqrB/NADP+ (NADPH formation at 340 nm); assay type: biochemical; conditions: 50 μM compound; anaerobic; 10 μM Fld; absorbance at 340 nm
T1 construct: made in house; host or cells: E. coli BL21 (flavodoxin, pET28a); E. coli JVQ2 (PFOR); E. coli BL21(DE3) (FqrB)
T1 sequence (O25776 1-164): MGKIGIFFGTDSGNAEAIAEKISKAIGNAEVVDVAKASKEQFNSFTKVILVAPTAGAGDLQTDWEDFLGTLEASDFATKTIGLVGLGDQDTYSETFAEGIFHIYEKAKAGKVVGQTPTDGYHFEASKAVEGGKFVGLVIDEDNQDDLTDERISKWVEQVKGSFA
From the text: Flavodoxin is an essential protein for Helicobacter pylori survival as it participates in a fundamental reaction for obtaining energy from the oxidative decarboxylation of pyruvate. In this reaction, flavodoxin transfers electrons between the PFOR enzyme and the FqrB enzyme, which releases them to NADP^+.
The sequential reaction of electron transfer between pyruvate, PFOR, flavodoxin, FqrB and NADP^+ (activity assay) was followed spectroscopically by the appearance of the signal at 340 nm with the formation of NADPH. The reaction mixture contained 100 mM potassium phosphate pH 7, 10 mM pyruvate, 0.18 mM CoA, 1 mM MgCl, 0.3 mM NADP^+, 0.09 mg/ml PFOR, 10 μM Fld and 0.15 μM FqrB. The mixture, except CoA, was placed in a cuvette specially designed for anaerobic conditions. Oxygen was removed by means of 5 minute cycles with alternate flows of vacuum and argon. The reaction was started by the addition of 0.18 mM coenzyme A (CoA) that was held in a compartment inside the same cuvette. The reaction finished 15 minutes after adding the CoA reagent.
The inhibition assays were carried out in the same conditions as the activity assays previously described, adding an additional 50 μM of the disclosed compound of the general formula shown in (II) to the reaction cuvette.

flavodoxin of H. pylori = target: T2, flavodoxin of H. pylori (Helicobacter pylori, UniProt O25776); assay: Isothermal titration calorimetry (ITC) binding to flavodoxin; conditions: 50 mM EPPS buffer, pH 9, 7% DMSO; protein around 20 μM; read-out: affinity for flavodoxin (ITC)
T2 construct: made in house; host or cells: E. coli BL21 (pET28a)
Experimental: The specific binding of the inhibitors of the disclosed compounds to flavodoxin of H. pylori was confirmed by isothermal titration calorimetry (ITC). This technique not only measures the affinity of each compound for the target protein, but also determines the contribution of the enthalpic and entropic components of binding.
The binding experiments were carried out in 50 mM EPPS buffer, pH 9 with 7% DMSO, with the inhibitor in the injection syringe at a concentration of 300-500 μM, and the protein around 20 μM in the measurement cell.

With `O=[N+]([O-])C1=Cc2cc(Cl)cc(Cl)c2OC1c1ccc(F)cc1` (centres unmarked) [formula (II)] as the compound, how does the “inhibition of NADPH formation (pyruvate oxidative decarboxylation reaction)” value (H. pylori flavodoxin) read?
Its value is “almost total”.

What about the Kd (flavodoxin of H. pylori) of the same compound?
The Kd was 1600 nM.
